Source: PubChem BioAssay AID1963866 (Molecular Pharmacology Branch, DTP, NCI, 2024)

Tested on: PDC KRAS tumor spheroids with HUVEC/MSC, viability
Assay: Anticancer human tumor 349418-098-R-PDC patient-derived lung adenocarcinoma cell line growth inhibition [KRAS2]
Conditions: for IC50: curve of first compound; for viability, T/C: stronger effect = lower value
Method in brief: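 Combination screen of spheroid viability in tumor-cell co-cultures with endothelial (HUVEC) and mesenchymal stem cell stroma. Each agent was tested in half-log dilutions, topping at clinical Cmax or at 10 microM without a known Cmax.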

[1] = second compound 0.1 µM, first compound 0.0316 µM
[2] = second compound 0.1 µM, first compound 0.1 µM
[3] = second compound 0.1 µM, first compound 0.316 µM
[4] = second compound 0.1 µM, first compound 1 µM
[5] = second compound 0.1 µM, first compound 3.16 µM
[6] = second compound 0.316 µM, first compound 0.0316 µM
[7] = second compound 0.316 µM, first compound 0.1 µM
[8] = second compound 0.316 µM, first compound 0.316 µM
[9] = second compound 0.316 µM, first compound 1 µM
[10] = second compound 0.316 µM, first compound 3.16 µM
[11] = second compound 1 µM, first compound 0.0316 µM
[12] = second compound 1 µM, first compound 0.1 µM
[13] = second compound 1 µM, first compound 0.316 µM
[14] = second compound 1 µM, first compound 1 µM
[15] = second compound 1 µM, first compound 3.16 µM
[16] = second compound 3.16 µM, first compound 0.0316 µM
[17] = second compound 3.16 µM, first compound 0.1 µM
[18] = second compound 3.16 µM, first compound 0.316 µM
[19] = second compound 3.16 µM, first compound 1 µM
[20] = second compound 3.16 µM, first compound 3.16 µM
[21] = second compound 10 µM, first compound 0.0316 µM
[22] = second compound 10 µM, first compound 0.1 µM
[23] = second compound 10 µM, first compound 0.316 µM
[24] = second compound 10 µM, first compound 1 µM
[25] = second compound 10 µM, first compound 3.16 µM
[26] = second compound 0.1 µM, first compound 0.01 µM
[27] = second compound 0.316 µM, first compound 0.01 µM
[28] = second compound 1 µM, first compound 0.01 µM
[29] = second compound 3.16 µM, first compound 0.01 µM
[30] = second compound 10 µM, first compound 0.01 µM
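Also: spheroids exposed to compounds for seven days before readout.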

Row | Compound | IC50 (second compound 0.1 µM) [nM] | IC50 (second compound 0.316 µM) [nM] | IC50 (second compound 1 µM) [nM] | IC50 (second compound 3.16 µM) [nM] | IC50 (second compound 10 µM) [nM] | viability, T/C [1] [%] | viability, T/C [2] [%] | viability, T/C [3] [%] | viability, T/C [4] [%] | viability, T/C [6] [%] | viability, T/C [7] [%] | viability, T/C [8] [%] | viability, T/C [9] [%] | viability, T/C [11] [%] | viability, T/C [12] [%] | viability, T/C [13] [%] | viability, T/C [14] [%] | viability, T/C [16] [%] | viability, T/C [17] [%] | viability, T/C [18] [%] | also measured
1 | CC(C)NCC(C(=O)N1CCN(c2ncnc3c2C(C)CC3O)CC1)c1ccc(Cl)cc1 (stereo not given) + CC1OCC2(CCN(c3cnc(Sc4ccnc(N)c4Cl)c(N)n3)CC2)C1N | 270 | 271 | 472 | 358 | 401 | 98.9 | 78.6 | 42.5 | 25.8 | 100 | 77.7 | 43 | 25.9 | 98.2 | 85.1 | 61.7 | 28.7 | 92.8 | 80.4 | 51.8 | viability, T/C [5]: 13.9%; viability, T/C (second compound 0.1 µM, first compound 10 µM): 7.23%; viability, T/C [10]: 14.5%; viability, T/C (second compound 0.316 µM, first compound 10 µM): 6.51%; viability, T/C [15]: 17.4%; viability, T/C (second compound 1 µM, first compound 10 µM): 7.82%; viability, T/C [19]: 26.4%; viability, T/C [20]: 19.8%; viability, T/C (second compound 3.16 µM, first compound 10 µM): 7.52%; viability, T/C [21]: 87.1%; viability, T/C [22]: 83.6%; viability, T/C [23]: 51.5%; viability, T/C [24]: 31%; viability, T/C [25]: 15.3%; viability, T/C (second compound 10 µM, first compound 10 µM): 7.92%
2 | CC1COCCN1c1cc(-c2ccnn2C)c2ccnc(-c3ccn[nH]3)c2n1 (stereo not given) + CC1OCC2(CCN(c3cnc(Sc4ccnc(N)c4Cl)c(N)n3)CC2)C1N | 30.4 | 26.9 | 37.8 | 37.4 | 25.4 | 48.2 | 9.73 | 7 | 4.41 | 39.4 | 9.52 | 7.35 | 4.82 | 56.9 | 12.2 | 7.13 | 5.99 | 56.8 | 10.1 | 6.94 | viability, T/C [26]: 98.1%; viability, T/C [5]: 4.8%; viability, T/C [27]: 115%; viability, T/C [10]: 4.26%; viability, T/C [28]: 117%; viability, T/C [15]: 4.5%; viability, T/C [29]: 97.7%; viability, T/C [19]: 4.63%; viability, T/C [20]: 4.81%; viability, T/C [30]: 89.6%; viability, T/C [21]: 40.6%; viability, T/C [22]: 9.52%; viability, T/C [23]: 5.38%; viability, T/C [24]: 4.95%; viability, T/C [25]: 4.71%
3 | CCN1CCN(Cc2ccc(Nc3ncc(F)c(-c4cc(F)c5nc(C)n(C(C)C)c5c4)n3)nc2)CC1 + CC1OCC2(CCN(c3cnc(Sc4ccnc(N)c4Cl)c(N)n3)CC2)C1N | 5.38 | 3.38 | 7.27 | 7.9 | 6.16 | 21.4 | 14.6 | 13.6 | 4.93 | 18.1 | 23.4 | 10.2 | 6.35 | 21.1 | 16.4 | 10.7 | 3.95 | 23.7 | 18.1 | 10.1 | viability, T/C (second compound 0.1 µM, first compound 0.00316 µM): 66.4%; viability, T/C [26]: 28.3%; viability, T/C (second compound 0.316 µM, first compound 0.00316 µM): 50.9%; viability, T/C [27]: 37.3%; viability, T/C (second compound 1 µM, first compound 0.00316 µM): 70.2%; viability, T/C [28]: 43.6%; viability, T/C (second compound 3.16 µM, first compound 0.00316 µM): 61.6%; viability, T/C [29]: 49.8%; viability, T/C [19]: 3.58%; viability, T/C (second compound 10 µM, first compound 0.00316 µM): 68.6%; viability, T/C [30]: 36.7%; viability, T/C [21]: 18.2%; viability, T/C [22]: 15.1%; viability, T/C [23]: 9.7%; viability, T/C [24]: 3.29%
